Measured values reported in patent US10512268B2, “Herbicidal compounds” (Syngenta Participations AG, priority 2015, dated 2019).

Assays:
Type in all cases: in vivo
[1] = system: Alopecurus myosuroides (ALOMY); test: Comparative testing, glasshouse herbicide test, spray one day after sowing
Description: (§1) Seeds of a variety of test species are sown in standard soil in pots. After cultivation for one day under controlled conditions in a glasshouse (at 24/16° C., day/night; 14 hours light; 65% humidity), an aqueous spray solution derived from the formulation of the technical active ingredient in 0.6 ml acetone and 45 ml formulation solution containing 10.6% Emulsogen EL (Registry number 61791-12-6), 42.2% N-methyl pyrrolidone, 42.2% dipropylene glycol monomethyl ether (CAS RN 34590-94-8) and 0.2% X-77 (CAS RN 11097-66-8) is applied.
(§2) The test plants are then grown in a glasshouse under controlled conditions in a glasshouse (at 24/16° C., day/night; 14 hours light; 65% humidity) and watered twice daily. After 21 days, the test is evaluated (100=total damage to plant; 0=no damage to plant). Test plants (weed species) include: Alopecurus myosuroides (ALOMY), Bidens pilosa (BIDPI), Euphorbia heterophylla (EPHHL), Lolium perenne (LOLPE), Panicum milaceum (PANMI), Sida spinosa (SIDSP) and Stellaria media STEME).

Bidens pilosa (BIDPI) = test: as above
Description: as §1, §2

[2] = system: Euphorbia heterophylla (EPHHL); test: as above
Description: as §1, §2

Lolium perenne (LOLPE) [3] = test: as above
Description: as §1, §2

Panicum milaceum (PANMI) = test: as above
Description: as §1, §2

Sida spinosa (SIDSP) = test: as above
Description: as §1, §2

Stellaria media (STEME) = test: as above
Description: as §1, §2

[4] = system: Amaranthus retoflexus (AMARE); test: Further testing, post-emergence application; conditions: 1000 g/h, after 13 days
Description: (§3) Seeds of a variety of test species are sown in standard soil in pots (Lolium perenne (LOLPE), Solanum nigrum (SOLNI), Amaranthus retoflexus (AMARE), Setaria faberi (SETFA), Echinochloa crus-galli (ECHCG), Ipomoea hederacea (IPOHE)). After cultivation for one day (pre-emergence) or after 8 days cultivation (post-emergence) under controlled conditions in a glasshouse (at 24/16° C., day/night; 14 hours light; 65% humidity), the plants are sprayed with an aqueous spray solution derived from the formulation of the technical active ingredient in acetone/water (50:50) solution containing 0.5% Tween 20 (polyoxyethelyene sorbitan monolaurate, CAS RN 9005-64-5). Compounds are applied at 1000 g/h unless otherwise stated. The test plants are then grown in a glasshouse under controlled conditions in a glasshouse (at 24/16° C., day/night; 14 hours light; 65% humidity) and watered twice daily. After 13 days for pre and post-emergence, the test is evaluated for the percentage damage caused to the plant. The biological activities are shown in the following table on a five point scale (5=80-100%; 4=60-79%; 3=40-59%; 2=20-39%; 1=0-19%).

[5] = system: Echinochloa crus-galli (ECHCG); test: Further testing, post-emergence application; conditions: 1000 g/h, after 13 days
Description: as §3

[6] = system: Ipomoea hederacea (IPOHE); test: Further testing, post-emergence application; conditions: 1000 g/h, after 13 days
Description: as §3

Lolium perenne (LOLPE) [7] = test: Further testing, post-emergence application; conditions: 1000 g/h, after 13 days
Description: as §3

Setaria faberi (SETFA) [8] = test: Further testing, post-emergence application; conditions: 1000 g/h, after 13 days
Description: as §3

Solanum nigrum (SOLNI) [9] = test: Further testing, post-emergence application; conditions: 1000 g/h, after 13 days
Description: as §3

[10] = system: Amaranthus retoflexus (AMARE); test: Further testing, pre-emergence application; conditions: 1000 g/h, after 13 days
Description: as §3

[11] = system: Echinochloa crus-galli (ECHCG); test: Further testing, pre-emergence application; conditions: 1000 g/h, after 13 days
Description: as §3

[12] = system: Ipomoea hederacea (IPOHE); test: Further testing, pre-emergence application; conditions: 1000 g/h, after 13 days
Description: as §3

Lolium perenne (LOLPE) [13] = test: Further testing, pre-emergence application; conditions: 1000 g/h, after 13 days
Description: as §3

Setaria faberi (SETFA) [14] = test: Further testing, pre-emergence application; conditions: 1000 g/h, after 13 days
Description: as §3

Solanum nigrum (SOLNI) [15] = test: Further testing, pre-emergence application; conditions: 1000 g/h, after 13 days
Description: as §3

[16] = Rate 125, evaluated after 21 days
[17] = Rate 250, evaluated after 21 days

Cn1nnnc1NC(=O)c1nn(C)c(=O)c(C2CCCCC2)c1Cl [Compound 1.001]
damage to plant (100=total damage to plant; 0=no damage to plant) [1, 16]: 40 | damage to plant (100=total damage to plant; 0=no damage to plant) [1, 17]: 40 | damage to plant (100=total damage to plant; 0=no damage to plant) (Bidens pilosa (BIDPI); [16]): 100 | damage to plant (100=total damage to plant; 0=no damage to plant) (Bidens pilosa (BIDPI); [17]): 100 | damage to plant (100=total damage to plant; 0=no damage to plant) [2, 16]: 90 | damage to plant (100=total damage to plant; 0=no damage to plant) [2, 17]: 90 | damage to plant (100=total damage to plant; 0=no damage to plant) (Lolium perenne (LOLPE) [3]; [16]): 60 | damage to plant (100=total damage to plant; 0=no damage to plant) (Lolium perenne (LOLPE) [3]; [17]): 60 | damage to plant (100=total damage to plant; 0=no damage to plant) (Panicum milaceum (PANMI); [16]): 80 | damage to plant (100=total damage to plant; 0=no damage to plant) (Panicum milaceum (PANMI); [17]): 80 | damage to plant (100=total damage to plant; 0=no damage to plant) (Sida spinosa (SIDSP); [16]): 90 | damage to plant (100=total damage to plant; 0=no damage to plant) (Sida spinosa (SIDSP); [17]): 90 | damage to plant (100=total damage to plant; 0=no damage to plant) (Stellaria media (STEME); [16]): 100 | damage to plant (100=total damage to plant; 0=no damage to plant) (Stellaria media (STEME); [17]): 100 | percentage damage caused to the plant, five point scale [4]: 5 (5=80-100%) | percentage damage caused to the plant, five point scale [5]: 5 (5=80-100%) | percentage damage caused to the plant, five point scale [6]: 5 (5=80-100%) | percentage damage caused to the plant, five point scale (Lolium perenne (LOLPE) [7]): 5 (5=80-100%) | percentage damage caused to the plant, five point scale (Setaria faberi (SETFA) [8]): 5 (5=80-100%) | percentage damage caused to the plant, five point scale (Solanum nigrum (SOLNI) [9]): 5 (5=80-100%) | percentage damage caused to the plant, five point scale [10]: 5 (5=80-100%) | percentage damage caused to the plant, five point scale [11]: 5 (5=80-100%) | percentage damage caused to the plant, five point scale [12]: 5 (5=80-100%) | percentage damage caused to the plant, five point scale (Lolium perenne (LOLPE) [13]): 5 (5=80-100%) | percentage damage caused to the plant, five point scale (Setaria faberi (SETFA) [14]): 5 (5=80-100%) | percentage damage caused to the plant, five point scale (Solanum nigrum (SOLNI) [15]): 5 (5=80-100%)
